NC(N)=C([N+](=O)[O-])[N+](=O)[O-]
solubility (mole fraction)
Conditions | 293.15 K | 298.15 K | 303.15 K | 308.15 K | 313.15 K | 318.15 K | 323.15 K | 328.15 K | 333.15 K
in 2-butanone | 0.00503 | 0.0056 | 0.00613 | 0.00659 | 0.00714 | 0.00782 | 0.00837 | 0.00899 | 0.00957
in DMSO | 0.172 | 0.177 | 0.181 | 0.184 | 0.189 | 0.193 | 0.197 | 0.201 | 0.206
in MIBK | 0.00278 | 0.00327 | 0.00358 | 0.00402 | 0.00428 | 0.00467 | 0.00512 | 0.00553 | 0.006
in cyclopentanone | 0.00715 | 0.00767 | 0.0083 | 0.0089 | 0.00948 | 0.0103 | 0.011 | 0.0119 | 0.0128

Source: BigSolDB 2.1
